In publication PMC12680861, “Comparative analysis of LJ-4378 and tirzepatide in mouse models of obesity and weight regain” (Archives of Pharmacal Research, 2025):

Assays:
plasma protein [1] = assay: Plasma protein binding, Rapid Equilibrium Dialysis (RED); format: in vitro ADME, rat; settings: 10 μM, 37 °C, 4 h
Method: (§1) The plasma protein binding of LJ-4378 was evaluated using the Rapid Equilibrium Dialysis (RED) method with 100% plasma from human (Biochemed, BC22089NCP), rat (Innovative, IRT-N), and mouse (Biochemed, 029-APSC-MP), all treated with sodium citrate as an anticoagulant. The RED device (ThermoFisher Scientific, #89809) and reusable base plate (ThermoFisher Scientific, #89811) were used with an 8 K MWCO membrane. Test compounds were added to plasma at a final concentration of 10 μM and dialyzed against phosphate-buffered saline (PBS, pH 7.4; Hyclone, #SH30256.01) at 37 °C for 4 h. After incubation, equal volumes of plasma and PBS samples were mixed with blank PBS and blank plasma, respectively, followed by the addition of acetonitrile containing chlorpropamide (TRC, C424800) as the internal standard. […] All measurements were performed in duplicate with a deviation of less than 15% between replicates. The free fraction (% Free) was calculated as (concentration in buffer chamber/concentration in plasma chamber) × 100, and the bound fraction (% Bound) was obtained by subtracting % Free from 100. In cases where measurements were unstable, deviations greater than 15% were allowed.

CYP2C19 = CYP2C19 (Homo sapiens, UniProt P33261); assay: CYP enzyme inhibition in pooled human liver microsomes (S-mephenytoin substrate); settings: microsomes, 10 µM
Method: (§2) Cytochrome 450 (CYP) enzyme inhibition was evaluated using pooled human liver microsomes (Corning, #452117). […] Substrates and corresponding metabolites for each CYP isoform were as follows: phenacetin and acetaminophen for CYP1A2 (Sigma Aldrich, #77440 and A7085, respectively), diclofenac and 4'-hydroxydiclofenac for CYP2C9 (Sigma Aldrich, D6899; TRC, H825225), S-mephenytoin and 4'-hydroxymephenytoin for CYP2C19 (Sigma Aldrich, UC175; Santacruz, sc210197), dextromethorphan and dextrorphan for CYP2D6 (Sigma Aldrich, #81091 and UC205), and midazolam and 1'-hydroxymidazolam for CYP3A4 (KFDA; Sigma Aldrich, UC430).
(§3) Samples were preincubated at 37 °C for 5 min, and the reaction was initiated by the addition of the NADPH regeneration system, followed by incubation at 37 °C for 15 min. The reaction was terminated by adding acetonitrile containing the internal standard, and centrifuged at 15,000 rpm for 5 min at 4 °C. The supernatant was analyzed by LC–MS/MS using a Nexera XR system (Shimadzu, Japan) coupled with a TSQ Vantage mass spectrometer (Thermo, USA). […] Metabolites were quantified in multiple reaction monitoring (MRM) mode with Xcalibur software (version 4.4).
(§4) All experiments were performed in duplicate with variability ≤ 15%. The percent activity of each CYP enzyme was calculated based on metabolite formation relative to the no-inhibitor control.

CYP2C9 = CYP2C9 (Homo sapiens, UniProt P11712); assay: CYP enzyme inhibition in pooled human liver microsomes (diclofenac substrate); settings: microsomes, 10 µM
Method: as §2, §3, §4

plasma protein [2] = assay: Plasma protein binding, Rapid Equilibrium Dialysis (RED); format: in vitro ADME, mouse; settings: 10 μM, 37 °C, 4 h
Method: as §1

Plasma stability assay [3] = format: in vitro ADME, mouse; settings: 37 °C, 30 min
Method: (§5) The plasma stability of LJ-4378 was evaluated using 100% plasma obtained from human (Biochemed, BC22089NCP, sodium citrate), rat (Innovative, IRT-N, sodium citrate), and mouse (Biochemed, 029-APSC-MP, sodium citrate). 10 Μm of LJ-4378 was added to the plasma, and samples were incubated at 37 °C for 0, 30, and 120 min. At each time point, an aliquot of the plasma was removed and mixed with acetonitrile containing the internal standard, chlorpropamide (TRC, C424800). […] The supernatant was injected into the LC–MS/MS system for quantification of the remaining compound. Analysis was performed using a Nexera XR system (Shimadzu, Japan) with a TSQ Vantage mass spectrometer (Thermo, USA). […] Data acquisition was conducted in MRM mode using Xcalibur software (version 4.4). All experiments were performed in duplicate with a deviation within 15%, and the percentage of compound remaining (% Remaining) at each time point was calculated relative to the non-incubated control sample. For quality control, procaine and enalapril (each at 10 μM) were used as reference compounds and were confirmed to fall within acceptable ranges.

Plasma stability assay [4] = format: in vitro ADME, rat; settings: 37 °C, 30 min
Method: as §5

CYP1A2 = target: T1, CYP1A2 (Homo sapiens, UniProt P05177); assay: CYP enzyme inhibition in pooled human liver microsomes (phenacetin substrate); settings: microsomes, 10 µM
T1 sequence (P05177 1-516): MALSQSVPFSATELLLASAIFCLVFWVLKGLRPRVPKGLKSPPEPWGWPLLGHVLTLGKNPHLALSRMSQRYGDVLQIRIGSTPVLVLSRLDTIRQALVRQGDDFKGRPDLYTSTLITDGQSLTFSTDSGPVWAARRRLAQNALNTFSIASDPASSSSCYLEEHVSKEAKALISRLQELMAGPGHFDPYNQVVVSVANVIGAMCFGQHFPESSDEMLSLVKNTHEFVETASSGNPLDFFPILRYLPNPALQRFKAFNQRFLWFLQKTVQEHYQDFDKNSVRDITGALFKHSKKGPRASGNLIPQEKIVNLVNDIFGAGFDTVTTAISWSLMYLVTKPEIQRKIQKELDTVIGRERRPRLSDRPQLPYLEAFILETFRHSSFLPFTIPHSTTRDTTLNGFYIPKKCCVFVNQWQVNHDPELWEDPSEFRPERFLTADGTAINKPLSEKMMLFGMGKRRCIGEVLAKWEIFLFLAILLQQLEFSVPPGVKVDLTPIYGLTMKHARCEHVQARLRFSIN
Method: as §2, §3, §4

CYP2D6 = CYP2D6 (Homo sapiens, UniProt P10635); settings: microsomes, 10 µM
Method: as §2, §3, §4

plasma protein [5] = assay: Plasma protein binding, Rapid Equilibrium Dialysis (RED); format: in vitro ADME, human; settings: 10 μM, 37 °C, 4 h
Method: as §1

[6] = design: method as in Jastreboff et al. [2022]; Sattar et al. [2022]; settings: over 72 weeks; ref Jastreboff et al. [2022]; Sattar et al. [2022]; cited from earlier work

CYP2C19, sequence (P33261 whole entry, canonical isoform): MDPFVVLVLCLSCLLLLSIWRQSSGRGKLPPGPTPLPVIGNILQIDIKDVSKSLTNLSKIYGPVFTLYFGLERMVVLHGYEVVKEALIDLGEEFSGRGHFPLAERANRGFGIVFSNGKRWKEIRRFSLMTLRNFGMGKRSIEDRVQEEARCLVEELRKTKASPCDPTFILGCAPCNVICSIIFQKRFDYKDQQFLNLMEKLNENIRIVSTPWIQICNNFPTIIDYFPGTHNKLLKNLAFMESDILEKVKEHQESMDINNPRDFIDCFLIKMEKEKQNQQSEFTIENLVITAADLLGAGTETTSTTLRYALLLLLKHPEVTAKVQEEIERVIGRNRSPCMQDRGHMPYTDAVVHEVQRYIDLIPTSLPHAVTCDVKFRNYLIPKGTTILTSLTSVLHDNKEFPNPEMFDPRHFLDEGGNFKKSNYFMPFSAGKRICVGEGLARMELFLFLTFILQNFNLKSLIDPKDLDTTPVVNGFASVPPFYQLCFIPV
CYP2C9, sequence (P11712 whole entry): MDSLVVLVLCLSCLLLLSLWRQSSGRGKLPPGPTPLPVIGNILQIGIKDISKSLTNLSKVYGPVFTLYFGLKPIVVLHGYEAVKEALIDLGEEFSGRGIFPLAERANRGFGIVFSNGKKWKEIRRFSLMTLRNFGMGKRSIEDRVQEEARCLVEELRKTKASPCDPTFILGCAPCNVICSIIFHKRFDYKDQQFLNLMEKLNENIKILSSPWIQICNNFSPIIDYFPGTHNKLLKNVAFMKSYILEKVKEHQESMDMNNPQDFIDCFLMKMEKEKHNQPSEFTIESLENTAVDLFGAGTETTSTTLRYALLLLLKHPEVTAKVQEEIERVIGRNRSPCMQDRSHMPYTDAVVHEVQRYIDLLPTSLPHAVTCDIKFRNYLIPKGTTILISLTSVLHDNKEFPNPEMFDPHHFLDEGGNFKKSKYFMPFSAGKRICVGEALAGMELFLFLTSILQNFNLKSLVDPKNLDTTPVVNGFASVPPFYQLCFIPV
CYP2D6, sequence (P10635 whole entry): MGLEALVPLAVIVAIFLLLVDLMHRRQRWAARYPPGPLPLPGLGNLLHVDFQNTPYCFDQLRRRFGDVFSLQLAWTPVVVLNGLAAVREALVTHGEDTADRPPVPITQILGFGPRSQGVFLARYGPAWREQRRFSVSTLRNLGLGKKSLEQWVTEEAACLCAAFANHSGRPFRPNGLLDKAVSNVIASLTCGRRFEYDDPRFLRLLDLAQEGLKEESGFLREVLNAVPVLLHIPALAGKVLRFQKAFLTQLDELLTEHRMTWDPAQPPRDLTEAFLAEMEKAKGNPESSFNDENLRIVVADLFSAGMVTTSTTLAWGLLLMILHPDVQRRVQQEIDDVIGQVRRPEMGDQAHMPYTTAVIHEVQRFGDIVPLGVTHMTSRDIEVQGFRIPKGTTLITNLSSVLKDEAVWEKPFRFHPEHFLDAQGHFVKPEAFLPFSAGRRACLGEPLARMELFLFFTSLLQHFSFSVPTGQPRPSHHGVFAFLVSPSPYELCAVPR

Molecule | Plasma free fraction (% Free), Rat (plasma protein [1]) | % of control activity CYP2C19 (CYP2C19) | % of control activity CYP2C9 (CYP2C9) | Plasma free fraction (% Free), Mouse (plasma protein [2]) | % Remaining compound, Mouse plasma 30 min (Plasma stability assay [3]) | % Remaining compound, Rat plasma 30 min (Plasma stability assay [4]) | % of control activity CYP1A2 (CYP1A2) | % of control activity CYP2D6 (CYP2D6) | Plasma free fraction (% Free), Human (plasma protein [5]) | weight reductions in clinical studies [6]
CCCCC#Cc1nc(N)c2ncn([C@@H]3SC[C@@H](O)[C@H]3O)c2n1 [LJ-4378] | 29.7% | 85.3% | 95.8% | 12.7% | 98.4% | > 100% | 82.2% | 89.3% | 30.1% | –
Tirzepatide [TZP, reference compound] | – | – | – | – | – | – | – | – | – | up to 22.5%
